Literature values as cited in patent US6472583B1, “Plasmid-based mutation detection system in transgenic fish” (The University of Georgia Research Foundation, Inc., priority 1998, dated 2002).
Where two headings read alike, the source gives them in different places.

What was measured:
λLIZ transgenic fish = settings: previous studies using λLIZ transgenic fish
[1] = species not stated

CCN(N=O)C(N)=O [ENU, N-ethyl-N-nitrosourea]
mutation frequency induction (λLIZ transgenic fish; dose about 0.5 mM (60 ppm)): two-fold | mutation frequency induction (λLIZ transgenic fish; dose about 120 ppm, medaka): four-fold | LD50 [1]: ~350 mg/kg
